Here are results for three compounds from US9012497B2, “Cyclohexyl carbamate compounds as active anti-cellulite ingredients” (Symrise AG, priority 2010, dated 2015).

What all share (type): cell-based
The test system of one experiment is 3T3-L1 cells. The experiment can be described thus: Adipogenesis assay (in vitro), Nile Red lipid staining. As to conditions: Mus musculus, mean values of at least 2 independent tests, read-out: Adipogenesis inhibition IC50. Here is the method:
3T3-L1 cells (mouse embryonic fibroblast-like adipocyte cell line) are seeded in a 48-well plate with collagen I-coating in a concentration of 3×10^4 cells/well. After 72 h cultivation at 37° C. and 5% CO2 in DMEM (Dulbecco's Modified Eagle Medium), enriched with 10% calf serum, various concentrations of the test substances in DMEM, enriched with 10% foetal calf serum and to which are added 1 μg/ml insulin, 0.25 μM dexamethasone and 0.5 mM IBMX (3-isobutyl-1-methylxanthine), are added and incubated for a further 48 h. A media change takes place, in that DMEM, enriched with 10% foetal calf serum and with 1 μg/ml insulin added, are applied. After renewed cultivation for 48 h, a further media change takes place, in which DMEM, enriched with 10% foetal calf serum, is applied.
After a further incubation for 72 h, the intracellularly stored lipids are quantified as a measure for the differentiation of the cells by measuring the fluorescence after staining of the lipids with the fluorescent dye Nile Red.
The inhibition of the adipogenesis in the presence of the test substances is calculated according to the following equation:
[formula] wherein RFU test substance=relative fluorescent units of the wells with test substance and with cells RFU control=relative fluorescent units of the wells without test substance, but with cells RFU control without cells=relative fluorescent units of the wells without test substance and without cells The IC50 is calculated from the adipogenesis inhibition [%] in a series of dilutions of tested samples. This is the concentration at which the adipogenesis is 50% inhibited.

Experiment [1] relates to ex vivo pig skin model including subcutis fat layer. In words: Lipolysis assay, ex vivo pig skin model, free glycerol release. To be noted: conc. 0.1% in cosmetic test preparation, topical on ex vivo pig skin, 24 hours, versus placebo. An excerpt:
Full thickness pig skin patches (pig skin model including subcutis fat layer as described in EP 1 939 279) are excised from the dorsal part of young pig slaughtered for meat. The ex vivo pig skin models have a size of 7×3 mm (diameter×height). They are placed on a titanium grid dipped in culture medium. On top of the skin samples formulations are applied. In parallel to a cosmetic test preparation containing one or more compounds of formula (I) a placebo preparation without any compound of formula (I) is applied as reference (blank).
After 24 hours of incubation, the quantification of free glycerol in the medium surrounding the pig skin models was performed. The glycerol is released by the cells after hydrolysis of triglycerides in the cells of the adipose tissue and is a measure of the lipolysis of the pig skin models. The quantification of the free glycerol is carried out based on an enzymatic method with a free glycerol reagent.
Cosmetic Test Preparation:
Phases A and B are heated to 70° C. separately. Pemulen TR1 as well as Ultrez-21 are dispersed in phase B when heated to 70° C. Phase B/C is added to phase A by mixing with an Ultra Turrax, followed by emulsifying. Phase D is slowly added to phase A/B/C using a paddle mixer and a pH 5.5-6 is adjusted. The formulation is cooled down while mixing with a paddle mixer. Phase E is prepared by dissolving one or more compounds of formula (I) in Hydrolite-5. Subsequently, phase E is added to the mixture of phase A-D.
The stimulation of the lipolysis in the presence of test substances is calculated according to the following equation:
[formula] wherein A test substance=absorption of the wells with medium of ex vivo skin models, on which the formulation containing the test substance was applied A placebo=absorption of the wells with medium of ex vivo skin models, on which the placebo without test substance was applied

A further experiment relates to 3T3 cells. The experiment can be described thus: ATP assay, inhibition of proliferation. To be noted: Mus musculus, NIH3T3, 48 h, non-cytotoxic dilutions, mean values of at least 2 independent tests. Here is the method: 3T3 cells (mouse […] fibroblasts) were seeded in 96-well plates. After 24 h cultivation at 37° C. and 5% CO2 in DMEM (Dulbecco's Modified Eagle Medium), cells were treated with test substances for another 48 h. […] ATP content in the cells is measured by
The inhibition of proliferation was calculated by:
[formula] wherein RLU test substance=relative luminescent units of the wells with test substance and with cells RLU control=relative luminescent units of the wells without test substance, but with cells RLU control without cells=relative luminescent units of the wells without test substance and without cells
The IC50 is calculated from the proliferation inhibition [%] in a series of non-cytotoxic dilutions of tested samples. This is the concentration at which the proliferation is 50% inhibited.

Turning to `CCCCNC(=O)OC1C(C)CCC(C)C1C` (stereo not drawn) [BIO1617, Butyl-carbamic acid 2,3,6-trimethyl-cyclohexyl ester], the IC50 with 3T3-L1 cells worked out at 79 µM; with 3T3 cells it was 244 µM. Also, the Stimulation of lipolysis in experiment [1] came out at 21%.

For `CCCCNC(=O)OC1CCCCC1C(C)C` (stereo not drawn) [BIO1841, Butyl-carbamic acid 2-isopropyl-cyclohexyl ester], the half-maximal inhibitory concentration (IC50) is 59 µM in the experiment with 3T3-L1 cells and 255 µM in the experiment with 3T3 cells. Also, in experiment [1], the Stimulation of lipolysis worked out at 25%.

As for `CCC(C)NC(=O)OC1CCCC(C)C1C` (stereo not drawn) [BIO1845, sec-Butyl-carbamic acid 2,3-dimethyl-cyclohexyl ester], the figures for the IC50 in the experiment on 3T3-L1 cells and in the experiment on 3T3 cells were 96 µM and 345 µM, respectively. This compound had a Stimulation of lipolysis in experiment [1] of 29%.

By IC50 is commonly meant the concentration that gives 50% inhibition.
